According to patent publication US5468756A, “Imidazonaphthyridine derivatives” (Kyowa Hakko Kogyo Co., Ltd., priority 1990, dated 1995):
Where a name gives a salt, the structure may show the parent alone.

What was measured:
[1] = tested on: ddY strain male mice; experiment: Acute toxicity (Minimum Lethal Dose); type: in vivo
Method: The test compound was orally and intraperitoneally administered to ddY strain male mice weighing 20 to 25 g. MLD (Minimum Lethal Dose) was determined by observing the mortality for […] after the administration.

[2] = tested on: platelet activating factor (PAF)-induced mortality; experiment: Inhibition effect on platelet activating factor (PAF)-induced mortality; type: in vivo, male dd mice; details: Mus musculus, po, PAF 40 μg/kg i.v., 3 h, n = 10, control group survival 0-20%, read-out: Survival rate of test compound-administered group
Method: e) Inhibition effect on platelet activating factor (PAF)-induced mortality
The experiment was carried out by a minor modification of a known method [Br. J. Pharmacol., 79, 595 (1983)]. Groups each consisting of 10 male dd mice (weighing 28 to 32 g) were used, and 50 or 100 mg/kg of the test compound or a saline (control) was orally administered. One hour after the administration of test compound, 40 μg/kg of PAF (manufactured by Avanti Polar Lipids Co., Ltd.) was intravenously administered. Three hours after PAF injection, the mortality of the animals was observed.

[3] = tested on: passive Schultz-Dale reaction; experiment: Effect on passive Schultz-Dale reaction (broncho-dilative activity), sensitized tracheal strips contracted by antigen; set-up: species or system male Hartley guinea pigs; details: guinea pig tracheal zig-zag strips, 37° C., antigen egg white albumin 1 μg/ml; read-out: Passive Schultz-Dale reaction IC50 (concentration of 50% relaxation rate)
Method: d) Effect on passive Schultz-Dale reaction (broncho-dilative activity)
Male Hartley guinea pigs weighing 350 to 500 g were passively sensitized by intraperitoneal injection of rabbit anti-OA serum prepared in advance by the method of Koda et al. [Folia Pharmacol., Japon 66, 237, (1970)]. After 24 hours, the guinea pigs were stunned and exsanguinated, and then tracheae were removed. The zig-zag strips of the tracheae were prepared by the method of Emmerson and Mackay [J. Pharm. Pharmacol., 31, 798, (1979)]. The strips were suspended in Krebs-Henseleit solution at 37° C. under aeration of a mixed gas of 95% oxygen and 5% carbon dioxide, and equilibrated for one hour. Then, antigen (egg white albumin) was introduced in the solution (final concentration; 1 μg/ml), and the contraction was measured by isotonictransducer (TD-112s, made by Nihon Kohden K.K., Japan) and recorded on a recorder (Type 3066, made by Yokogawa-Hokushin Denki, K.K. Japan). After the contraction curves reached a plateau, the test compounds were successively added in order to get cumulative concentration-relaxation curves. The concentration of 50% relaxation rate (IC50) was calculated from the regression line, which was obtained from the cumulative concentration-relaxation curves.

[4] = tested on: carrageenin-induced paw edema; experiment: Effect on carrageenin-induced paw edema; type: in vivo, male Wistar rats; details: Rattus norvegicus; p.o., 3 hours after carrageenin; read-out: Suppression rate for paw swelling, carrageenin-induced edema
Method: a) Effect on carrageenin-induced paw edema
Male Wistar rats weighing 150 to 160 g (n=3-5) were used in the experiment. After the right hind paw volume was measured with the plethysmograph (TK-101; Unicom Co., Ltd.), the test compound (25, 50 or 100 mg/kg) was orally administered. After one hour, 0.1 ml of 1% carrageenin (λ-carrageenin; PICNIN-A®, Zushi Kagaku Co., Ltd.) was subcutaneously injected into the right hind paw footpad. Three hours after the injection of carrageenin, the right hind paw volume was measured and the swelling rate was determined by the following equation 1. [formula] Vt: the right hind paw volume measured 3 hours after the injection of carrageenin
Vo: the right hind paw volume measured prior to the injection of carrageenin
The suppression rate was calculated by the following equation 2. [formula] Swt: the swelling rate of the group administered with the test compound Swc: the swelling rate of the control group administered with physiological saline solution

| SMILES | MLD (Minimum Lethal Dose) i.p. [1] [mg/kg] | MLD (Minimum Lethal Dose) p.o. [1] [mg/kg] | responders at 100 mg/kg [2] [%] | IC50 [3] [µM] | inhibition in vivo at 100 mg/kg [4] [%] |
| --- | --- | --- | --- | --- | --- |
| Cn1cnc2c(=O)n(-c3ccccc3)c3ncccc3c21 [Compound 2, 1-Methyl-5-phenyl-1H-imidazo[4,5-c][1,8]naphthyridin-4(5H)-one] | > 100 | > 300 | – | – | – |
| O=c1c2[nH]cnc2c2cccnc2n1-c1ccccc1 [Compound 3, 5-Phenyl-3H-imidazo[4,5-c][1,8]naphthyridin-4(5H)-one] | > 100 | > 300 | 70 | 0.77 | – |
| Cn1cnc2c3cccnc3n(-c3ccccc3)c(=O)c21 [Compound 4, 3-Methyl-5-phenyl-3H-imidazo[4,5-c][1,8]naphthyridin-4(5H)-one] | > 50 | > 50 | – | 0.24 | – |
| CCn1cnc2c(=O)n(-c3ccccc3)c3ncccc3c21 [Compound 5, 1-Ethyl-5-phenyl-1H-imidazo[4,5-c][1,8]naphthyridin-4(5H)-one] | – | – | 80 | > 10 | 20.6 |
| CC(C)n1cnc2c(=O)n(-c3ccccc3)c3ncccc3c21 [Compound 6, 1-Isopropyl-5-phenyl-1H-imidazo[4,5-c][1,8]naphthyridin-4(5H)-one] | – | – | 70 | > 10 | 22 |
| O=c1c2ncn(Cc3ccccc3)c2c2cccnc2n1-c1ccccc1 [Compound 7, 1-Benzyl-5-phenyl-1H-imidazo[4,5-c][1,8]naphthyridin-4(5H)-one] | – | – | 90 | > 10 | – |
| O=c1c2[nH]c(-c3ccccc3)nc2c2cccnc2n1-c1ccccc1 [Compound 19, 2,5-Diphenyl-3H-imidazo[4,5-c][1,8]naphthyridin-4(5H)-one] | – | – | 60 | > 10 | 1.7 |
| O=c1c2[nH]c(S)nc2c2cccnc2n1-c1ccccc1 [Compound 20, 2-Mercapto-5-phenyl-3H-imidazo[4,5-c][1,8]naphthyridin-4(5H)-one] | – | – | 30 | > 10 | 6.8 |
| CCOC(=O)Cn1cnc2c3cccnc3n(-c3ccccc3)c(=O)c21 [Compound 32, 3-Ethoxycarbonylmethyl-5-phenyl-3H-imidazo[4,5-c][1,8]naphthyridin-4(5H)-one] | > 100 | > 300 | 0 | 0.68 | – |
| CCCC(CCC)n1cnc2c3cccnc3n(-c3ccccc3)c(=O)c21 [Compound 35, 3-(1-Propylbutyl)-5-phenyl-3H-imidazo[4,5-c][1,8]naphthyridin-4(5H)-one] | > 100 | > 300 | 70 | – | – |
| O=c1c2c(ncn2CC=Cc2ccccc2)c2cccnc2n1-c1ccccc1 [Compound 36, 3-Cinnamyl-5-phenyl-3H-imidazo[4,5-c][1,8]naphthyridin-4(5H)-one] | > 100 | > 300 | 20 | – | – |
| O=c1c2c(ncn2C(c2ccccc2)c2ccccc2)c2cccnc2n1-c1ccccc1 [Compound 38, 3-(3-Diphenylmethyl)-5-phenyl-3H-imidazo-[4,5-c][1,8]naphthyridin-4(5H)-one] | – | – | 30 | – | – |
| Cc1ccc(C)c(Cn2cnc3c4cccnc4n(-c4ccccc4)c(=O)c32)c1 [Compound 39, 3-(2,5-Dimethylphenyl)methyl-5-phenyl-3H-imidazo[4,5-c][1,8]naphthyridin-4(5H)-one] | – | – | 0 | – | – |
| O=c1c2c(ncn2Cc2ccccc2Cl)c2cccnc2n1-c1ccccc1 [Compound 48, 3-(2-Chlorophenyl)methyl-5-phenyl-3H-imidazo[4,5-c][1,8]naphthyridin-4(5H)-one] | – | – | 10 | 4.9 | – |
| O=c1c2c(ncn2Cc2cccc(Br)c2)c2cccnc2n1-c1ccccc1 [Compound 49, 3-(3-Bromophenyl)methyl-5-phenyl-3H-imidazo[4,5-c][1,8]naphthyridin-4(5H)-one] | – | – | 0 | – | – |
| COC(=O)c1ccc(Cn2cnc3c4cccnc4n(-c4ccccc4)c(=O)c32)cc1 [Compound 50, 3-(4-Methoxycarbonylphenyl)methyl-5-phenyl-3H-imidazo[4,5-c][1,8]naphthyridin-4(5H)-one] | – | – | 0 | – | – |
| O=c1c2c(ncn2CCCO)c2cccnc2n1-c1ccccc1 [Compound 51, 3-(3-Hydroxypropyl)-5-phenyl-3H-imidazo[4,5-c][1,8]naphthyridin-4(5H)-one] | – | – | 80 | – | – |
| CC(O)Cn1cnc2c3cccnc3n(-c3ccccc3)c(=O)c21 (centres unmarked) [Compound 52, 3-(2-Hydroxypropyl)-5-phenyl-3H-imidazo[4,5-c][1,8]naphthyridin-4(5H)-one] | – | – | 100 | – | – |
| O=c1c2c(ncn2Cc2ccco2)c2cccnc2n1-c1ccccc1 [Compound 53, 3-Furfuryl-5-phenyl-3H-imidazo[4,5-c][1,8]naphthyridin-4(5H)-one] | – | – | 90 | – | – |
| O=c1c2c(ncn2Cc2cccnc2)c2cccnc2n1-c1ccccc1 [Compound 54, 5-Phenyl-3-(3-pyridyl)methyl-3H-imidazo[4,5-c][1,8]naphthyridin-4(5H)-one] | – | – | 90 | – | – |
| COc1ccc(-n2c(=O)c3c(ncn3Cc3ccccc3)c3cccnc32)cc1 [Compound 55, 5-(4-Methoxyphenyl)-3-benzyl-3H-imidazo[4,5-c][1,8]naphthyridin-4(5H)-one] | – | – | 0 | – | – |
| COc1cccc(-n2c(=O)c3c(ncn3Cc3ccccc3)c3cccnc32)c1 [Compound 56, 5-(3-Methoxyphenyl)-3-benzyl-3H-imidazo[4,5-c][1,8]naphthyridin-4(5H)-one] | – | – | 40 | – | – |
| Cc1ccc(-n2c(=O)c3c(ncn3Cc3ccccc3)c3cccnc32)cc1 [Compound 57, 5-(4-Methylphenyl)-3-benzyl-3H-imidazo[4,5-c][1,8]naphthyridin-4(5H)-one] | – | – | 0 | – | – |
| Cc1nc2c3cccnc3n(-c3ccccc3)c(=O)c2n1Cc1ccccc1 [Compound 60, 2-Methyl-5-phenyl-3-benzyl-3H-imidazo[4,5-c][1,8]-naphthyridin-4(5H)-one] | – | – | 20 | – | – |
| O=c1c2c(nc(-c3ccccc3)n2Cc2ccccc2)c2cccnc2n1-c1ccccc1 [Compound 61, 2,5-Diphenyl-3-benzyl-3H-imidazo[4,5-c][1,8]naphthyridin-4(5H)-one] | – | – | 10 | – | – |
| COc1ccc(-n2c(=O)c3c(ncn3CC(C)C)c3cccnc32)cc1 [Compound 62, 3-Isobutyl-5-(4-methoxyphenyl)-3H-imidazo[4,5-c][1,8]naphthyridin-4(5H)-one] | – | – | 90 | – | – |
| Cc1ccc(-n2c(=O)c3c(ncn3CC(C)C)c3cccnc32)cc1 [Compound 64, 3-Isobutyl-5-(4-methylphenyl)-3H-imidazo[4,5-c][1,8]naphthyridin-4(5H)-one] | – | – | 60 | – | – |
| O=c1c2c(ncn2CCCN2CCOCC2)c2cccnc2n1-c1ccccc1 [Compound 66 Sa, 3-(3-Morpholino)propyl-5-phenyl-3H-imidazo[4,5-c][1,8]naphthyridin-4(5H)-one hydrochloride] | > 100 | > 300 | 70 | – | – |
| CCN(CC)CCCn1cnc2c3cccnc3n(-c3ccccc3)c(=O)c21 [Compound 67 Sa, 3-(3-Diethylamino)propyl-5-phenyl-3H-imidazo[4,5-c][1,8]naphthyridin-4(5H)-one hydrochloride] | > 100 | > 300 | 30 | – | – |
